For one data set, the system named is GFP-GR. Briefly: GFP-GR translocation study in BAECs. The conditions noted are these: 0.01-1 μM, 60-minute treatment. In kind it is cell-based. The method, then: BAECs were seeded at 1×10^5/ml in 24 well plates and allowed to spread overnight. Cells were transfected with GFP-GR chimeric protein by adding 450 ng of DNA complexed with 2 ul of lipofectamine in a 200 ul volume of Optimem media growth to each well of a 24 well plate for ˜1.5 hour. The DNA-lipofectamine complex was then removed and cells placed in DMEM supplemented with 0.5% calf serum. This reduced level of calf serum was used to prevent non-specific translocation of GFP-GR receptor in response to hormones in the serum. […] Analysis of GFP-GR translocation was conducted by counting the number of cells in each field of view, which had GFP-GR nuclear localization compared to total number of cells. ˜40 cells were analyzed per condition.

Another data set is described as follows: Water solubility. In kind it is physicochemical. The source says:
The 21-hydroxy group of dexamethasone is not required for anti-inflammatory activity, and therefore is an ideal choice for conjugation to a polycation (FIG. 1A) (Schimmer et al., 1996, in The Pharmacological Basis of Therapeutics, 1459-1485, eds. Hardman and Limbird, McGraw-Hill, New York). […] Traut's reagent is selectively ring-opened by the primary amines (Hermanson, 1996, Bioconjugate Techniques, Academic Press) on spermine, forming a hydrolytically sensitive amidimide bond (Hermanson, 1996, Bioconjugate Techniques, Academic Press) between spermine and iminothiolane and a reactive thiolate anion that reacts with the α-keto mesylate on the 21 position of dexamethasone mesylate (Simmons et al., 1980, J. Org. Chem. […]), yielding an α-keto thioether linkage between the dexamethasone and iminothiolane. Dexamethasone mesylate (prepared or received from Steraloids, N.H.) or dexamethasone (Steraloids, N.H.), 2-iminothiolane (Traut's reagent) (Pierce), spermine (Sigma), and ethanol or DMSO (Aldrich) were used as received. […] For DA, FIG. 1B: Calc: C, 63.26; H, 7.35; N, 2.84. Found: C, 63.44; H, 7.27; N, 2.83.

In data set [1] the test system is Bovine aortic endothelial cells (BAEC). Briefly: Lipofection of BAEC with EGFP plasmid. In kind it is cell-based. Conditions: unconjugated, alone.
Method: Bovine aortic endothelial cells (BAEC, passage 4-13) were passaged at a 1:3 split to 24-well culture plates, and then grown to dense confluence before lipofection. Growth medium was Dulbecco's modified Eagle's medium (DMEM) containing 10% heat inactivated charcoal-filtered (to remove steroid hormones) fetal calf serum (Hyclone), 0.30 mg/ml glutamine, 150 U/ml penicillin, and 0.15 mg/ml streptomycin (Gibco). […] The plasmids pEGFP-N3 and pGRE-SEAP (Clontech) were used for expression of EGFP or secreted alkaline phosphatase under the regulation of CMV or GRE promoters, respectively. […]
For lipofection, a solution of DS/DOPE in 125 μl OptiMEM I (Gibco) was mixed with a solution of DNA in 125 μl OptiMEM I, incubated for 30 to 60 minutes, and then overlaid on BAEC cells for 2 hours, followed by PBS rinse and addition of growth media. Fluorescence was measured after 48 hours. […] EGFP expression of transfections was monitored in duplicate (FIG. 2A) or triplicate (FIG. 2B) with a fluorescent plate reader (Labsystems Fluoroskan Ascent; 485 nm/538 nm filter pair) with background subtraction using the autofluorescence of non-transfected BAEC. […] Supernatant was collected, and pooled with supernatant from PBS washed and pelleted cells (total volume 750 μl), and EGFP fluorescence was measured (Ex 485, Em 515; SLM fluorometer). […]

This is an account of results in patent US9180132B2, “Antimicrobial cationic steroids and methods of use” (The Trustees of the University of Pennsylvania, priority 2010, dated 2015).

With `CCCCCCCCNCCC[C@@H](C)[C@H]1CC[C@H]2[C@@H]3[C@H](OCCCN)C[C@@H]4C[C@H](OCCCN)CC[C@]4(C)[C@H]3C[C@H](OCCCN)[C@]12C` [CSA-13], the “nuclear localization (translocation) of GFP-GR” value (shortened to “nuclear localization”) in the data set with GFP-GR is “not observed”.
For `CC1C[C@H]2[C@@H]3CCC4=CC(=O)C=C[C@]4(C)[C@@]3(F)C(O)C[C@]2(C)[C@@]1(O)C(=O)CSCCCC(=N)NCCCNCCCCNCCCN` (some centres unmarked) [DS, N-[3-({4-[(3-aminopropyl)amino]butyl}amino)propyl]-4-[(9-fluoro-11,17-dihydroxy-16-methyl-3,20-dioxopregna-1,4-dien-21-yl)sulfanyl]butanimidamide], in the data set “Water solubility”, the solubility (in general, how much of the substance goes into solution per volume) is above 100 mg/mL. Also, the “nuclear localization” value in the data set on GFP-GR is reported as “caused nuclear localization of GFP-GR”.
Turning to “LL-37: cathelicidin peptide LL37, naturally occurring antibacterial agent (LLGDFFRKSKEKIGKEFKRIVQRIKDFLRNLVPRTES; Antibacterial peptide LL-37; UniProt P49913 134-170, looked up)”, the “nuclear localization” value in the data set with GFP-GR was “not observed”.
For `NCCCNCCCCNCCCN` [Spermine, spermine], the “gene transfer activity (EGFP expression)” value in data set [1] is “no detectable gene transfer activity”.
